Test results as given in patent publication US20260053750A1, “INHALABLE COMPOSITIONS OF CDK9 INHIBITORS” (THE REGENTS OF THE UNIVERSITY OF CALIFORNIA, priority 2022, published 2026).

Tests used:
[1] = encapsulation and release in microparticles of the invention; type: physicochemical
[2] = tested on: TNF-stimulated luciferase reporter expression, driven by a NF-kB responsive promoter, in HEK293 cells; assay: NF-kB luciferase reporter bioactivity assay; type: cell-based, Human; conditions: 300 nM flavopiridol, 0.6 nM TNF-α, 24 h
Procedure: The bioactivity of flavopiridol released from ILDF particles was determined by a luciferase reporter assay as described previously. ILDF particles (18.94 mg) containing 0.190% (w/w) flavopiridol was dissolved in DMEM with 10% FBS to a stock solution of 8.9×10^4 nM flavopiridol. The bioactivity of flavopiridol was measured by its ability to suppress TNF-stimulated luciferase reporter expression, driven by a NF-kB responsive promoter. Human embryonic kidney 293 cells (HEK293) cells (ATCC) harboring a NF-kB-driven luciferase reporter were seeded in 96-well plates (10,000 cells/well in triplicates) 24 hours before the experiment. Cells were then treated with 100 μL of media containing 0.6 nM recombinant human TNF-α (Peprotech), in the presence or absence of various amount of dissolved flavopiridol formulation or blank formulation equivalent. After 24 h, 100 μL of 2× lysis buffer (Invitrogen) containing luciferase substrate was added directly to each well. Luminescence was measured in a plate reader (SpectraMax iD3, Molecular Devices). Experiments were performed in triplicate (N=3) from one batch of particles, and results were reported as mean±SD.

[3] = cited from earlier work
[4] = tested on: lung fibrosis mouse model (bleomycin); assay: bleomycin lung fibrosis mouse model, i.p. treatment; type: in vivo, C57B/L6 mice; conditions: vs BLM+ vehicle control
Procedure: The effects of flavopiridol on lung inflammation and fibrosis were assessed in a lung fibrosis mouse model. C57B/L6 mice were treated with bleomycin (BLM) by microsprayer. At day 7 after BLM treatment, alveolar damage became apparent in the treated mice. At day 9, the mice were divided into 4 groups of 8 animals each. Each group received its corresponding treatment every other day starting at Day 9. At Day 30, the animals were sacrificed and assessed. One group received only phosphate buffer saline (PBS). One group received 28 mg/kg nitedanib by intraperitoneal injection (i.p.). One group received 2.5 mg/kg of flavopiridol i.p. and one group received 28 mg/kg idebenone i.p. Survival and lung morphology were assessed at day 30. […] Lung tissue sections from the treated animals were stained with Masson's trichome staining protocol and exemplary images are shown in FIG. 8D.

[5] = tested on: NFκB target genes; assay: suppression of IL-1β-induced primary inflammatory response genes in human cell culture; type: cell-based
Procedure: CDK9 inhibitors exert effects on the inflammatory response pathway. For example, the pharmacological CDK9 inhibitor flavopiridol effectively suppresses the activation of a broad range of primary inflammatory response genes, in human cell culture treated with IL-1β for 5 hours (see FIG. 1). Among the 67 different genes (out of 84 total NFκB target genes tested) that were induced by IL-1β, 59 were repressed by flavopiridol co-treatment (including the most-characterized pro-inflammatory cytokines such as IL-1β, Il-6, and TNF). The average magnitude of repression is >86% of maximum induction. […] Importantly, house-keeping genes and non-inducible genes are not affected by CDK9 inhibition short term, indicating potential reduction in side effects.

[6] = tested on: pulmonary fibrosis in mice using bleomycin; assay: bleomycin pulmonary fibrosis in mice, inhaled flavopiridol; type: in vivo; conditions: every two days from eight days post-bleomycin, 14-day treatment
Procedure: Our experimental model involved the induction of pulmonary fibrosis in mice using bleomycin, followed by the administration of inhaled flavopiridol during the early fibrotic phase of the model. Eight days post-intratracheal instillation of bleomycin, mice were treated with either a vehicle or inhaled flavopiridol every two days. After a 14-day treatment course, lung tissues were harvested and subjected to histological and biochemical analysis. A notable loss of body weight observed in bleomycin-exposed mice served as an indicator of successful fibrosis induction (FIG. 9).

[7] = 2.5 mg/kg i.p. every other day from Day 9, Day 30

Structure (SMILES) | encapsulation and release in microparticles [1] | TNF-α-stimulated luciferase activity [2] | in-vivo half-life [3] | hydroxyproline level [4, 7] | percentage of stained area (Masson's trichome, lung sections) [4, 7] | survival rate ([4]; 2.5 mg/kg i.p. every other day from Day 9, to Day 30) | body weight ([4]; 2.5 mg/kg i.p. every other day from Day 9) | average magnitude of repression ([5]; human cell culture treated with IL-1β for 5 hours, flavopiridol co-treatment) | number of IL-1β-induced genes repressed by flavopiridol co-treatment ([5]; of 67 genes induced by IL-1β (84 NFκB target genes tested), human cell culture, IL-1β for 5 hours) | hydroxyproline levels [6] | survival rate ([6]; vs vehicle group)
CCc1cnn2c(NCc3ccc[n+]([O-])c3)cc(N3CCCC[C@H]3CCO)nc12 [Dinaciclib] | not encapsulated effectively or released appropriately |  |  |  |  |  |  |  |  |  | 
CN1CC[C@H](c2c(O)cc(O)c3c(=O)cc(-c4ccccc4Cl)oc23)[C@H](O)C1 [flavopiridol, 2-(2-chlorophenyl)-5,7-dihydroxy-8-[(3S,4R)-3-hydroxy-1-methyl-4-piperidinyl]-4-chromenone] |  | the luciferase activation was suppressed | under 6 hours | statistically significant lower level of hydroxyproline | statistically significant decrease in percentage of stained area | statistically significant difference in survival rate | generally maintained a higher body weight | > 86 % of maximum induction | 59 | appeared to suppress the bleomycin-induced increase of hydroxyproline levels | higher survival rate
